# Experimental data reported in patent US10869844B2, “Methods for the treatment of depression” (Janssen Pharmaceutica NV, priority 2014, dated 2020).
# Read-outs that look alike come from different tables or passages of the source.
# Assays:
# adult subjects with TRD [1] = assay type: in vivo, human; details: for Non-responders % / Non-responders N / Responders % (MADRS total score reduction >50% TRD2001, ≥50% TRD2002) / Responders N (MADRS total score reduction >50% TRD2001, ≥50% TRD2002): after first infusion (Day 2 TRD2001, Day 3 or 4 TRD2002)
# Method: (§1) Association between changes in MADRS total score from baseline and the SNP rs6265 after a single dose was evaluated in placebo subjects and active subjects using an ANCOVA model under a dominant model with baseline MADRS total score, and grouped genotype (Val/Val or Met carrier). A statistically significant result was found in active subjects (p=0.02).
# as §1, with “the % responders” for “changes in MADRS total score from baseline”, “a logistic regression” for “an ANCOVA”, “score” for “score,”, “(p=0.03).” for “(p=0.02).”
# Association between the % remitters and the SNP rs6265 after a single dose was evaluated in placebo subjects and as well as in active subjects using a logistic regression model under a dominant model with baseline MADRS total score and grouped genotype (Val/Val or Met carrier).
# [2] = test system: patients with major depressive disorders; details: cited from earlier work
# adult subjects with TRD [3] = details: for Day 17 responders who maintained response status up to Day 35, % / Day 17 responders who maintained response status up to Day 35, number: all subjects
structure (smiles),measurement,setting,value
"CNC1(c2ccccc2Cl)CCCCC1=O (racemic) [Ketamine, ketamine]",Non-responders %,adult subjects with TRD [1]; Met carriers,92.3%
same,Non-responders N,adult subjects with TRD [1]; Met carriers,12
same,"Responders % (MADRS total score reduction >50% TRD2001, ≥50% TRD2002)",adult subjects with TRD [1]; Met carriers,7.7%
same,"Responders N (MADRS total score reduction >50% TRD2001, ≥50% TRD2002)",adult subjects with TRD [1]; Met carriers,1
same,Non-responders %,adult subjects with TRD [1]; Val/Val,71.4%
same,Non-responders N,adult subjects with TRD [1]; Val/Val,15
same,"Responders % (MADRS total score reduction >50% TRD2001, ≥50% TRD2002)",adult subjects with TRD [1]; Val/Val,28.6%
same,"Responders N (MADRS total score reduction >50% TRD2001, ≥50% TRD2002)",adult subjects with TRD [1]; Val/Val,6
same,Clinical response associated with Met allele of Val66Met rs6265,"adult subjects with TRD [1]; acute, single dose administration",smaller clinical response
same,"Likelihood of antidepressant response, Val/Val BDNF allele at rs6265 vs Met carriers","[2]; MDD patients, LAJE, Biol. Psychiatry 2012",more likely to exhibit antidepressant response to ketamine than Met carriers
same,Onset of rapid antidepressant effect,[2]; patients with major depressive disorders,within two hours
same,"Day 17 responders who maintained response status up to Day 35, %",adult subjects with TRD [3]; Met carriers (of 7),42.9%
same,"Day 17 responders who maintained response status up to Day 35, number",adult subjects with TRD [3]; Met carriers (of 7),3
same,"Day 17 responders who maintained response status up to Day 35, %",adult subjects with TRD [3]; Val/Val (of 12),91.7%
same,"Day 17 responders who maintained response status up to Day 35, number",adult subjects with TRD [3]; Val/Val (of 12),11
same,"Responders on Day 17, number",adult subjects with TRD [3]; among all subjects (Val/Val and Met carriers),19
same,"Responders on Day 17, number","adult subjects with TRD [3]; among all subjects, Met carriers",7
same,"Responders on Day 17, number","adult subjects with TRD [3]; among all subjects, Val/Val",12
